# Experimental data reported in US10894784B2, “Heteroarylbenzimidazole compounds” (BAYER PHARMA AKTIENGESELLSCHAFT, priority 2015, dated 2021).
# Biological target: TBK1 (Homo sapiens (Human), UniProt Q9UHD2)
# Test: TBK1 low ATP kinase assay (in vitro assay 1)
# Assay type: biochemical
# Conditions: in vitro assay 1, read-out: TBK1 low ATP kinase assay IC50
# TBK1, sequence (Q9UHD2 whole entry): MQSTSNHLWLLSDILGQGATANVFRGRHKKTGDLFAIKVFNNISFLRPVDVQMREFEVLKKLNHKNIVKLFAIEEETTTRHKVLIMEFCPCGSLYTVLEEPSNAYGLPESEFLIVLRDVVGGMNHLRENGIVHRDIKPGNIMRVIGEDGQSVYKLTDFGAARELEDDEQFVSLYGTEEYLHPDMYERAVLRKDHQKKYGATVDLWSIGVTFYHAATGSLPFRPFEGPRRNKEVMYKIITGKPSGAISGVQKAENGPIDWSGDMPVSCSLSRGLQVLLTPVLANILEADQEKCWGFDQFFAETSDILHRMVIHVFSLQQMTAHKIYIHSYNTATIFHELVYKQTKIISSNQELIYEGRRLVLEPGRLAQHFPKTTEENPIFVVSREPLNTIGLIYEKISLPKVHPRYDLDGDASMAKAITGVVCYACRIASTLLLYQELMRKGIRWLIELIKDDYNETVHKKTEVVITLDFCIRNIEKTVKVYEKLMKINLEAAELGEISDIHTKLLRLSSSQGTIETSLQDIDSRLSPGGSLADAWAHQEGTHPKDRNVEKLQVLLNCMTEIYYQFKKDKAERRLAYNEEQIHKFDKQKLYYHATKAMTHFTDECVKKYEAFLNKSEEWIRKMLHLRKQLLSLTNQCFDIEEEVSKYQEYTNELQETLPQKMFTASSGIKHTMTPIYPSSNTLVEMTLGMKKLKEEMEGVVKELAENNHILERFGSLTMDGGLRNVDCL
row,IC50,SMILES
1,22 nM,"CC(C)(O)c1cc(-c2ccc3nc(Nc4cc(CN5CCN(C(=O)CC(F)(F)F)CC5)ccn4)[nH]c3c2)ncn1 [Example 96.02, 3,3,3-trifluoro-1-(4-{[2-({6-[6-(2-hydroxypropan-2-yl)pyrimidin-4-yl]-1H-benzimidazol-2-yl}amino)pyridin-4-yl]methyl}piperazin-1-yl)propan-1-one]"
2,29 nM,"CC(=O)c1cc(-c2ccc3nc(Nc4cc(CN5CCN(C(=O)CC(F)(F)F)CC5)ccn4)[nH]c3c2)ncn1 [Example 97.03, 1-{4-[(2-{[6-(6-acetylpyrimidin-4-yl)-1H-benzimidazol-2-yl]amino}pyridin-4-yl)methyl]piperazin-1-yl}-3,3,3-trifluoropropan-1-one]"
3,76 nM,"Cc1cc(-c2ccc3nc(Nc4cc(C(C)N5CCN(C(=O)C6CC6)CC5)ccn4)[nH]c3c2Cl)ncn1 (centres unmarked) [Example 98.03, {4-[(1R or IS)-1-(2-{[7-chloro-6-(6-methylpyrimidin-4-yl)-1H-benzimidazol-2-yl]amino}pyridin-4-yl)ethyl]piperazin-1-yl}(cyclopropyl)methanone]"
4,680 nM,"Cc1noc(-c2ccc3nc(Nc4cc(CN5CCN(C=O)CC5)ccn4)[nH]c3c2)n1 [Example 101.01, 4-[(2-{[6-(3-methyl-1,2,4-oxadiazol-5-yl)-1H-benzimidazol-2-yl]amino}pyridin-4-yl)methyl]piperazine-1-carbaldehyde]"
5,680 nM,"Cc1noc(-c2ccc3nc(Nc4cc(CN5CCN(c6ccccc6F)CC5)ccn4)[nH]c3c2)n1 [Example 101.02, N-(4-{[4-(2-fluorophenyl)piperazin-1-yl]methyl}pyridin-2-yl)-6-(3-methyl-1,2,4-oxadiazol-5-yl)-1H-benzimidazol-2-amine]"
6,690 nM,"Cc1cccc(N2CCN(Cc3ccnc(Nc4nc5ccc(-c6nc(C)no6)cc5[nH]4)c3)CC2)c1 [Example 101.03, 6-(3-methyl-1,2,4-oxadiazol-5-yl)-N-(4-{[4-(3-methylphenyl)piperazin-1-yl]methyl}pyridin-2-yl)-1H-benzimidazol-2-amine]"
7,3000 nM,"Cc1noc(-c2ccc3nc(Nc4cc(CN5CCN(c6ccccc6)CC5)ccn4)[nH]c3c2)n1 [Example 101.04, 6-(3-methyl-1,2,4-oxadiazol-5-yl)-N-{4-[(4-phenylpiperazin-1-yl)methyl]pyridin-2-yl}-1H-benzimidazol-2-amine]"
8,780 nM,"Cc1noc(-c2ccc3nc(Nc4cc(CN5CCN(c6ncccn6)CC5)ccn4)[nH]c3c2)n1 [Example 101.05, 6-(3-methyl-1,2,4-oxadiazol-5-yl)-N-(4-{[4-(pyrimidin-2-yl)piperazin-1-yl]methyl}pyridin-2-yl)-1H-benzimidazol-2-amine]"
9,990 nM,"CC(=O)N1CCN(Cc2ccnc(Nc3nc4ccc(-c5nc(C)no5)cc4[nH]3)c2)CC1 [Example 101.06, 1-{4-[(2-{[6-(3-methyl-1,2,4-oxadiazol-5-yl)-1H-benzimidazol-2-yl]amino}pyridin-4-yl)methyl]piperazin-1-yl}ethanone]"
10,170 nM,"COc1ccccc1N1CCN(Cc2ccnc(Nc3nc4ccc(-c5nc(C)no5)cc4[nH]3)c2)CC1 [Example 101.07, N-(4-{[4-(2-methoxyphenyl)piperazin-1-yl]methyl}pyridin-2-yl)-6-(3-methyl-1,2,4-oxadiazol-5-yl)-1H-benzimidazol-2-amine]"
11,> 20000 nM,"Cc1noc(-c2ccc3nc(Nc4cc(CN5CCN(c6ccc(C(F)(F)F)cn6)CC5)ccn4)[nH]c3c2)n1 [Example 101.08, 6-(3-methyl-1,2,4-oxadiazol-5-yl)-N-[4-({4-[5-(trifluoromethyl)pyridin-2-yl]piperazin-1-yl}methyl)pyridin-2-yl]-1H-benzimidazol-2-amine]"
12,460 nM,"Cc1noc(-c2ccc3nc(Nc4cc(CN5CCN(c6cccc(F)c6)CC5)ccn4)[nH]c3c2)n1 [Example 101.09, N-(4-{[4-(3-fluorophenyl)piperazin-1-yl]methyl}pyridin-2-yl)-6-(3-methyl-1,2,4-oxadiazol-5-yl)-1H-benzimidazol-2-amine]"
13,180 nM,"Cc1noc(-c2ccc3nc(Nc4cc(CN5CCN(C(=O)c6ccccc6)CC5)ccn4)[nH]c3c2)n1 [Example 101.10, {4-[(2-{[6-(3-methyl-1,2,4-oxadiazol-5-yl)-1H-benzimidazol-2-yl]amino}pyridin-4-yl)methyl]piperazin-1-yl}(phenyl)methanone]"
14,> 20000 nM,"Cc1noc(-c2ccc3nc(Nc4cc(CN5CCN(c6ccc(F)cc6F)CC5)ccn4)[nH]c3c2)n1 [Example 101.11, N-(4-{[4-(2,4-difluorophenyl)piperazin-1-yl]methyl}pyridin-2-yl)-6-(3-methyl-1,2,4-oxadiazol-5-yl)-1H-benzimidazol-2-amine]"
15,450 nM,"Cc1noc(-c2ccc3nc(Nc4cc(CN5CCN(c6ccncc6)CC5)ccn4)[nH]c3c2)n1 [Example 101.12, 6-(3-methyl-1,2,4-oxadiazol-5-yl)-N-(4-{[4-(pyridin-4-yl)piperazin-1-yl]methyl}pyridin-2-yl)-1H-benzimidazol-2-amine]"
16,360 nM,"Cc1noc(-c2ccc3nc(Nc4cc(CN5CCN(c6cnccn6)CC5)ccn4)[nH]c3c2)n1 [Example 101.13, 6-(3-methyl-1,2,4-oxadiazol-5-yl)-N-(4-{[4-(pyrazin-2-yl)piperazin-1-yl]methyl}pyridin-2-yl)-1H-benzimidazol-2-amine]"

# Second part, the compound before the results:
row,SMILES,IC50
1,"CC(C)(C)OC(=O)N1CCN(Cc2ccnc(Nc3nc4ccc(-c5cc(NCCO)ncn5)cc4[nH]3)c2)CC1 [Example 81.01, tert-butyl 4-({2-[(6-{6-[(2-hydroxyethyl)amino]pyrimidin-4-yl}-1H-benzimidazol-2-yl)amino]pyridin-4-yl}methyl)piperazine-1-carboxylate]",13 nM
2,"CC(C)(C)OC(=O)N1CCN(Cc2ccnc(Nc3nc4ccc(-c5cc(NC6CC6)ncn5)cc4[nH]3)c2)CC1 [Example 82.01, tert-butyl 4-{[2-({6-[6-(cyclopropylamino)pyrimidin-4-yl]-1H-benzimidazol-2-yl}amino)pyridin-4-yl]methyl}piperazine-1-carboxylate]",3.6 nM
3,"COc1c(C)ncnc1-c1ccc2nc(Nc3cc(C(C)N4CCN(C(=O)C5(C(F)(F)F)CC5)CC4)ccn3)[nH]c2c1 (centres unmarked) [Example 83.05, {4-[(1R or IS)-1-(2-{[6-(5-methoxy-6-methylpyrimidin-4-yl)-1H-benzimidazol-2-yl]amino}pyridin-4-yl)ethyl]piperazin-1-yl}[1-(trifluoromethyl)cyclopropyl]methanone]",2.9 nM
4,"COCCCNc1cc(-c2ccc3nc(Nc4cc(CN5CCN(C(=O)OC(C)(C)C)CC5)ccn4)[nH]c3c2)ncn1 [Example 90.01, tert-butyl 4-({2-[(6-{6-[(3-methoxypropyl)amino]pyrimidin-4-yl}-1H-benzimidazol-2-yl)amino]pyridin-4-yl}methyl)piperazine-1-carboxylate]",5.7 nM
5,"COCCCNc1cc(-c2ccc3nc(Nc4cc(CN5CCN(C(=O)CC(F)(F)F)CC5)ccn4)[nH]c3c2)ncn1 [Example 90.02, 3,3,3-trifluoro-1-[4-({2-[(6-{6-[(3-methoxypropyl)amino]pyrimidin-4-yl}-1H-benzimidazol-2-yl)amino]pyridin-4-yl}methyl)piperazin-1-yl]propan-1-one]",11 nM
6,"CCc1cc(-c2ccc3nc(Nc4cc(CN5CCN(C(=O)CC(F)(F)F)CC5)ccn4)[nH]c3c2)ncn1 [Example 91.02, 1-{4-[(2-{[6-(6-ethylpyrimidin-4-yl)-1H-benzimidazol-2-yl]amino}pyridin-4-yl)methyl]piperazin-1-yl}-3,3,3-trifluoropropan-1-one]",12 nM
7,"CCc1cc(-c2ccc3nc(Nc4cc(CN5CCN(C(=O)C6CC6)CC5)ccn4)[nH]c3c2)ncn1 [Example 91.03, cyclopropyl{4-[(2-{[6-(6-ethylpyrimidin-4-yl)-1H-benzimidazol-2-yl]amino}pyridin-4-yl)methyl]piperazin-1-yl}methanone]",13 nM
8,"Cc1noc(C)c1-c1cc(-c2ccc3nc(Nc4cc(CN5CCN(C(=O)OC(C)(C)C)CC5)ccn4)[nH]c3c2)ncn1 [Example 92.01, tert-butyl 4-{[2-({6-[6-(3,5-dimethyl-1,2-oxazol-4-yl)pyrimidin-4-yl]-1H-benzimidazol-2-yl}amino)pyridin-4-yl]methyl}piperazine-1-carboxylate]",88 nM
9,"Cc1noc(C)c1-c1cc(-c2ccc3nc(Nc4cc(CN5CCN(C(=O)CC(F)(F)F)CC5)ccn4)[nH]c3c2)ncn1 [Example 92.02, 1-(4-{[2-({6-[6-(3,5-dimethyl-1,2-oxazol-4-yl)pyrimidin-4-yl]-1H-benzimidazol-2-yl}amino)pyridin-4-yl]methyl}piperazin-1-yl)-3,3,3-trifluoropropan-1-one]",450 nM
10,"O=C(CC(F)(F)F)N1CCN(Cc2ccnc(Nc3nc4ccc(-c5cc(N6CCCC6)ncn5)cc4[nH]3)c2)CC1 [Example 93.01, 3,3,3-trifluoro-1-(4-{[2-({6-[6-(pyrrolidin-1-yl)pyrimidin-4-yl]-1H-benzimidazol-2-yl}amino)pyridin-4-yl]methyl}piperazin-1-yl)propan-1-one]",2.3 nM
11,"O=C(CC(F)(F)F)N1CCN(Cc2ccnc(Nc3nc4ccc(-c5cc(N6CCOCC6)ncn5)cc4[nH]3)c2)CC1 [Example 94.01, 3,3,3-trifluoro-1-(4-{[2-({6-[6-(morpholin-4-yl)pyrimidin-4-yl]-1H-benzimidazol-2-yl}amino)pyridin-4-yl]methyl}piperazin-1-yl)propan-1-one]",7.2 nM
12,"CSc1cc(-c2ccc3nc(Nc4cc(CN5CCN(C(=O)CC(F)(F)F)CC5)ccn4)[nH]c3c2)ncn1 [Example 95.01, 3,3,3-trifluoro-1-(4-{[2-({6-[6-(methylsulfanyl)pyrimidin-4-yl]-1H-benzimidazol-2-yl}amino)pyridin-4-yl]methyl}piperazin-1-yl)propan-1-one]",6.6 nM
13,"CSc1cc(-c2ccc3nc(Nc4cc(CN5CCN(C(=O)C6CC6)CC5)ccn4)[nH]c3c2)ncn1 [Example 95.02, cyclopropyl(4-{[2-({6-[6-(methylsulfanyl)pyrimidin-4-yl]-1H-benzimidazol-2-yl}amino)pyridin-4-yl]methyl}piperazin-1-yl)methanone]",9.5 nM
